Results as given in ChEMBL document CHEMBL1201862, “PubChem BioAssay data set” (2004).
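Method: 48-hour compound exposure of cells in 96-well plates, five concentrations, linear interpolation of endpoints. At the GI50, growth is halved.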 Active and inactive are the calls of the source. Cut-off read from the data, not from the text of the source: active = GI50 up to about 1.1 µM and inactive = higher.

Assays:
Test in all cases: inhibition of tumour cell growth, NCI panel, 48 h
A549 = system: A549
CCRF-CEM = system: CCRF-CEM
HCC 2998 = system: HCC 2998
HL-60 = system: HL-60
IGROV-1 = system: IGROV-1
KM12 = system: KM12
LOX IMVI = system: LOX IMVI
Malme-3M = system: Malme-3M
NCI-H23 = system: NCI-H23
NCI-H460 = system: NCI-H460
OVCAR-3 = system: OVCAR-3
OVCAR-5 = system: OVCAR-5
OVCAR-8 = system: OVCAR-8
SF-539 = system: SF-539
SK-OV-3 = system: SK-OV-3
TK-10 = system: TK-10
U-251 = system: U-251
HOP-92 = system: HOP-92

SMILES | GI50 (A549) | GI50 (CCRF-CEM) | GI50 (HCC 2998) | GI50 (HL-60) | GI50 (IGROV-1) | GI50 (KM12) | GI50 (LOX IMVI) | GI50 (Malme-3M) | GI50 (NCI-H23) | GI50 (NCI-H460) | GI50 (OVCAR-3) | GI50 (OVCAR-5) | GI50 (OVCAR-8) | GI50 (SF-539) | GI50 (SK-OV-3) | GI50 (TK-10) | GI50 (U-251) | GI50 (HOP-92)
COc1cc(/C=C(\C)c2ccc3c(c2)OCO3)cc(OC)c1OC | 18.5 µM (inactive) | 19.8 µM (inactive) | 25.5 µM (inactive) | 15.7 µM (inactive) | 25.1 µM (inactive) | 44.5 µM (inactive) | 16 µM (inactive) | 19.8 µM (inactive) | 37.5 µM (inactive) | 34.2 µM (inactive) | 34.8 µM (inactive) | 55.3 µM (inactive) | 29.8 µM (inactive) | 14.1 µM (inactive) | 28 µM (inactive) | 47 µM (inactive) | 50.4 µM (inactive) | –
O=C1OC2C(O)COC2(O)C1(O)Cc1c[nH]c2ccccc12.O=C1OC2C(O)COC2(OCc2c[nH]c3ccccc23)C1O (configuration not stated) | > 100 µM (inactive) | > 100 µM (inactive) | – | > 100 µM (inactive) | > 100 µM (inactive) | > 100 µM (inactive) | > 100 µM (inactive) | > 100 µM (inactive) | > 100 µM (inactive) | > 100 µM (inactive) | > 100 µM (inactive) | > 100 µM (inactive) | > 100 µM (inactive) | > 100 µM (inactive) | > 100 µM (inactive) | > 100 µM (inactive) | > 100 µM (inactive) | > 100 µM (inactive)
CCc1cccc(C)c1NC(=O)CC1C(=O)Nc2ccccc2S1(=O)=O (configuration not stated) | 18.6 µM (inactive) | 13.7 µM (inactive) | 16.8 µM (inactive) | 12.1 µM (inactive) | 13.4 µM (inactive) | – | 13.2 µM (inactive) | 14.4 µM (inactive) | 15.7 µM (inactive) | 13.1 µM (inactive) | 15.2 µM (inactive) | 23.6 µM (inactive) | 19.8 µM (inactive) | 11 µM (inactive) | – | 29.3 µM (inactive) | 16.9 µM (inactive) | 12 µM (inactive)
COC(=O)CCC(NC(=S)N/N=C(\C)c1cccs1)C(=O)OC (configuration not stated) | > 100 µM (inactive) | – | > 100 µM (inactive) | – | > 100 µM (inactive) | > 100 µM (inactive) | > 100 µM (inactive) | > 100 µM (inactive) | > 100 µM (inactive) | > 100 µM (inactive) | > 100 µM (inactive) | > 100 µM (inactive) | > 100 µM (inactive) | > 100 µM (inactive) | > 100 µM (inactive) | > 100 µM (inactive) | > 100 µM (inactive) | > 100 µM (inactive)
Cc1nc2ccccc2c(=O)n1/N=C(\N=N\c1ccccc1Cl)c1ccccc1Cl | > 100 µM (inactive) | 77.3 µM (inactive) | – | 27.9 µM (inactive) | 42.1 µM (inactive) | – | 86.5 µM (inactive) | – | 34 µM (inactive) | 73.5 µM (inactive) | – | – | > 100 µM (inactive) | 27.2 µM (inactive) | 22.9 µM (inactive) | 48 µM (inactive) | 48.5 µM (inactive) | 13 µM (inactive)
Cc1nc2c(s/c(=N\N)n2-c2ccccc2)c(=O)[nH]1 | > 100 µM (inactive) | > 100 µM (inactive) | > 100 µM (inactive) | > 100 µM (inactive) | > 100 µM (inactive) | > 100 µM (inactive) | > 100 µM (inactive) | > 100 µM (inactive) | > 100 µM (inactive) | > 100 µM (inactive) | > 100 µM (inactive) | > 100 µM (inactive) | > 100 µM (inactive) | > 100 µM (inactive) | > 100 µM (inactive) | > 100 µM (inactive) | > 100 µM (inactive) | > 100 µM (inactive)
CCCCC(C)/C=C/C(O)=C1\C(=O)O/C(=C\C(=O)O)C1=O (configuration not stated) | > 100 µM (inactive) | > 100 µM (inactive) | – | > 100 µM (inactive) | > 100 µM (inactive) | > 100 µM (inactive) | > 100 µM (inactive) | > 100 µM (inactive) | > 100 µM (inactive) | > 100 µM (inactive) | > 100 µM (inactive) | > 100 µM (inactive) | > 100 µM (inactive) | > 100 µM (inactive) | > 100 µM (inactive) | > 100 µM (inactive) | > 100 µM (inactive) | –
O=C(NO)C(=O)Nc1ccc(Cl)cc1[N+](=O)[O-] | > 100 µM (inactive) | > 100 µM (inactive) | > 100 µM (inactive) | > 100 µM (inactive) | > 100 µM (inactive) | > 100 µM (inactive) | 51.9 µM (inactive) | > 100 µM (inactive) | > 100 µM (inactive) | > 100 µM (inactive) | > 100 µM (inactive) | > 100 µM (inactive) | > 100 µM (inactive) | > 100 µM (inactive) | > 100 µM (inactive) | > 100 µM (inactive) | > 100 µM (inactive) | 83.9 µM (inactive)
NNc1nnc(-c2ccccc2)nc1Cc1ccccc1 | 6.41 µM (inactive) | 2.64 µM (inactive) | 3.39 µM (inactive) | 4.32 µM (inactive) | 10.9 µM (inactive) | 8.3 µM (inactive) | 3.56 µM (inactive) | 3.56 µM (inactive) | 6.03 µM (inactive) | 4.17 µM (inactive) | 3.61 µM (inactive) | 6.65 µM (inactive) | 4.52 µM (inactive) | 4.45 µM (inactive) | 14.3 µM (inactive) | 9.35 µM (inactive) | 6.87 µM (inactive) | –
COc1ccc2[nH]c3c(C)c4cc[n+](COC(=O)c5ccccc5)cc4c(C)c3c2c1 | 0.269 µM (active) | 0.0698 µM (active) | – | 0.628 µM (active) | 0.158 µM (active) | 0.61 µM (active) | 0.21 µM (active) | 1.43 µM (inactive) | 0.428 µM (active) | 0.0357 µM (active) | 1.48 µM (inactive) | 0.879 µM (active) | 0.0851 µM (active) | 0.305 µM (active) | 1.22 µM (inactive) | 0.55 µM (active) | 0.392 µM (active) | 0.375 µM (active)
O=c1c2ccccc2nc(-c2ccccc2)n1NC(=S)Nc1ccccc1 | > 100 µM (inactive) | > 100 µM (inactive) | – | > 100 µM (inactive) | > 100 µM (inactive) | > 100 µM (inactive) | 91 µM (inactive) | > 100 µM (inactive) | > 100 µM (inactive) | > 100 µM (inactive) | – | > 100 µM (inactive) | > 100 µM (inactive) | > 100 µM (inactive) | > 100 µM (inactive) | > 100 µM (inactive) | > 100 µM (inactive) | > 100 µM (inactive)
Cn1c(=O)n(C2(C)C[Se]C2)c2ccccc21 | > 100 µM (inactive) | > 100 µM (inactive) | 65.3 µM (inactive) | > 100 µM (inactive) | > 100 µM (inactive) | > 100 µM (inactive) | > 100 µM (inactive) | – | > 100 µM (inactive) | > 100 µM (inactive) | – | > 100 µM (inactive) | > 100 µM (inactive) | > 100 µM (inactive) | > 100 µM (inactive) | > 100 µM (inactive) | > 100 µM (inactive) | > 100 µM (inactive)
Cc1cc2oc(-c3ccccc3)c(C)c(=O)c2c2c1OC(C)(C)S2 | 90.2 µM (inactive) | 62.8 µM (inactive) | > 100 µM (inactive) | 8.13 µM (inactive) | > 100 µM (inactive) | 43.7 µM (inactive) | > 100 µM (inactive) | > 100 µM (inactive) | > 100 µM (inactive) | 92.7 µM (inactive) | > 100 µM (inactive) | > 100 µM (inactive) | > 100 µM (inactive) | > 100 µM (inactive) | > 100 µM (inactive) | > 100 µM (inactive) | > 100 µM (inactive) | 27.2 µM (inactive)
COc1ccc(Nc2nc(C#N)c(N)s2)cc1 | 27.2 µM (inactive) | – | > 10 µM (inactive) | 24.5 µM (inactive) | 76.6 µM (inactive) | 29.9 µM (inactive) | 21.4 µM (inactive) | 91.2 µM (inactive) | 22.5 µM (inactive) | > 100 µM (inactive) | > 100 µM (inactive) | > 100 µM (inactive) | 78.5 µM (inactive) | 36.2 µM (inactive) | 34 µM (inactive) | 38.2 µM (inactive) | 34.2 µM (inactive) | > 100 µM (inactive)
CC(C)(C)Sc1nnc(SC(C)(C)C)c2c(SC(C)(C)C)nnc(O)c12 | 4.59 µM (inactive) | 7.5 µM (inactive) | 11.5 µM (inactive) | 2.14 µM (inactive) | 8.51 µM (inactive) | 12.9 µM (inactive) | 11.7 µM (inactive) | 13.1 µM (inactive) | 10.9 µM (inactive) | 6.25 µM (inactive) | 10.7 µM (inactive) | 4.61 µM (inactive) | 10 µM (inactive) | 10.6 µM (inactive) | 17.9 µM (inactive) | 23.2 µM (inactive) | 5.62 µM (inactive) | 2.49 µM (inactive)
OC12c3ccccc3C1CCCCCCCCCC21OCCO1 (configuration not stated) | > 100 µM (inactive) | > 100 µM (inactive) | > 100 µM (inactive) | – | > 100 µM (inactive) | > 100 µM (inactive) | > 100 µM (inactive) | > 100 µM (inactive) | > 100 µM (inactive) | > 100 µM (inactive) | > 100 µM (inactive) | > 100 µM (inactive) | > 100 µM (inactive) | > 100 µM (inactive) | > 100 µM (inactive) | > 100 µM (inactive) | > 100 µM (inactive) | –
CCOC(=O)C(C(=O)OCC)P(=S)(S)c1ccccc1 (configuration not stated) | > 100 µM (inactive) | > 100 µM (inactive) | – | > 100 µM (inactive) | > 100 µM (inactive) | > 100 µM (inactive) | > 100 µM (inactive) | > 100 µM (inactive) | > 100 µM (inactive) | > 100 µM (inactive) | – | > 100 µM (inactive) | > 100 µM (inactive) | > 100 µM (inactive) | > 100 µM (inactive) | > 100 µM (inactive) | > 100 µM (inactive) | > 100 µM (inactive)
